# Article PMC7793975, “Design and Optimization of Quinazoline Derivatives: New Non-nucleoside Inhibitors of Bovine Viral Diarrhea Virus” (Frontiers in Chemistry, 2020)
# Values joined by “and” are separate entries in the source; they are usually repeats but may differ in a detail not shown here. Equal values may be shown once. Read-outs that look alike come from different tables or passages of the source.
# Legend:
# [1] = Cytotoxicity assay (MTS/PMS); conditions: bovine, MDBK cells
# Procedure: (§1) (A) Cytotoxicity. Sub-confluent MDBK cell monolayers grown in 96-well plates were treated with 2-fold serial dilutions of each compound in IM. Mock-treated cells were added as control. Cells were incubated and allowed to proliferate for 3 days at 37°C and 5% CO2. Cell viability was then determined by the MTS/PMS method. (B) Antiviral activity. Sub-confluent MDBK cell monolayers grown in 96-well plates were infected with BVDV NADL (MOI = 0.01) and treated with different concentrations of the compounds. Mock-infected cells and mock-treated infected cells were included as controls in each plate. After 3 days at 37°C and 5% CO2, cell viability was determined by the MTS/PMS method, and the percentage of the viral CPE inhibition was calculated.
# (§2) MDBK cells were seeded in 96-well plates at a density of 1 × 10^4 cells per well in GM. After 24 h, the culture medium was removed, monolayers were washed twice with phosphate-buffered saline (PBS), and serial dilutions of the test compounds were made in E-MEM supplemented with donor horse serum (DHS, Gibco, IM) and added. Cultures were incubated for 3 days at 37°C, and then, cell viability was determined by the MTS/PMS method according to the manufacturer's instructions (Promega). After incubation for 3 h at 37°C and 5% CO2, the absorbance was determined at 490 nm. The 50% cytotoxic concentration (CC50) was defined as the concentration of compound that inhibited the proliferation of exponentially growing cells by 50% and was calculated by interpolation in dose–response curves.
# [2] = system: MDBK cells; assay: Cytotoxicity assay (MTS/PMS); conditions: MDBK cells, 3 days
# Procedure: as §1, §2
# [3] = system: BVDV type 1 NADL strain; assay: Anti-BVDV assay (CPE reduction, MTS/PMS); assay type: cell-based, Bovine viral diarrhea virus; conditions: for EC50: BVDV NADL in MDBK cells, MOI 0.01, 3 days, reduces viral CPE by 50%, Inactive: <50% of inhibition of CPE at MNCC
# Procedure: (A) Cytotoxicity. […] Mock-treated cells were added as control. […] (B) Antiviral activity.
# Madin-Darby bovine kidney cells (MDBK NBL-1; ATCC CCL-22) were grown in Eagle's Minimum Essential Medium (E-MEM), supplemented with 10% biotechnological fetal bovine serum (Internegocios, Argentina) (GM) at 37°C and 5% CO2. The BVDV type 1 NADL strain, cytopathic biotype (BVDV-1, ATCC VR 534), was provided by Dr. Laura Weber (INTA Castelar, Argentina).
# Then, serial dilutions of the test compounds in IM were added. […] After incubation for 3 days at 37°C and 5% CO2, the culture medium was removed, cell monolayers were washed twice with PBS, and IM supplemented with MTS/PMS was added to each well. The absorbance of each well was read at 490 nm. The EC50 was defined as the concentration of compound that prevented 50% of the virus-induced CPE and was calculated by interpolation in dose–response curves.
# [4] = Shake-flask solubility (UV-Vis); assay type: physicochemical; conditions: thermodynamic from solid
# Procedure: Verapamil was used as internal control. More detailed information is available in the Supplementary Material.
# (§3) UV-Visible spectrums were measured with a UV3600 UV -Vis-NIR spectrophotometer in a range of 500 -200 nm using a quartz cuvette. The measurements were determined at λ values corresponding to the maximum of absorption . Baselines were determined with MeOH :media (1:1) mixture . Sample concentrations were determined using maximum absorption value s. All compounds were tested in […]
# (§4) Preparation of calibration curve
# (§5) From this solution, different volumes were combined with MeOH:media (1:1) mixture to obtain concentrations between 2.0 – 40.0 µg/mL. […]
# (§6) intestinal fluid (SIF, pH 6.8) or phosphate buffered saline solution (PBS, pH 7.4) was added. The vial contents were mixed at 1500 rpm at 37 °C for 24 h and then incubated at 37 °C for 24 h without stirring. Samples were filtered (0.2 μm, Sterile Acrodisc® 13, GelmanScience) before analysis.
# (§7) The filtered solutions were diluted in MeOH:media (1:1) mixture to achieved final concentrations of 0.01 (SGF), 0.02 (SIF) and 0.04 µg/mL (PBS). Verapamil and pr ocaine were used as internal […]
# (§8) DMSO and water/DMSO (98:2) stability […]
# (§9) were measured in a range of 500-200 nm using a quartz cuvette and the absorption was determined at 331 nm. Samples with 1.0 mg of 1.9 in 1 mL of DMSO or water/DMSO (98:2) mixture were prepared, and they were kept at room temperature without stir ring. Independent samples were measured every 1 week over 5 weeks. For the measurements, solutions were diluted at 1/100 in DMSO and 1/50 in water:DMSO (98:2) mixture. The values in the chart are the mean of three
# [5] = Stability in SGF, SIF, PBS (HPLC-MS); assay type: physicochemical
# Procedure: Stability assays were performed according to the procedure described in a previous work (Leal et al., [2019]). Samples were taken at different incubation times and analyzed by high-performance liquid chromatography–mass spectrometry (HPLC–MS) using a Waters Alliance e2695 system (Waters Corporation, Milford, MA, USA) fitted with a Phenomenex Kinetex® XB-C18 column (150 × 4.6 mm, 5-μm particle size, Phenomenex Inc., Torrance, CA, USA) coupled to a Waters SQD2 single quadrupole mass spectrometer with an ESI source. A gradient elution was applied using 40% water and 0.1% acetic acid (mobile phase A) and 40% methanol (mobile phase B), with the following program: 0–3 min 40% B; 3–7 min 40–90% B; and 7–20 min 90% B. The flow rate was kept constant at 0.35 ml min^−1. After each sample injection, the gradient was returned to its initial conditions in 16 min. The injection volume was 5 μl. The column temperature was 35°C. The mass spectrometer was operated in positive ion mode with a probe capillary voltage of 2.5 kV. The sampling cone voltage was set to 35.0 V. The source and desolvation gas temperatures were set at 150 and 350°C, respectively. The nitrogen gas desolvation flow rate was 600 L h^−1, and the cone gas flow rate was 10 L h^−1. The mass spectrometer was calibrated across the range of m/z 20–2,023 with a sodium and cesium iodide solution. Data were acquired in scan mode with a scan duration of 0.2 s and in SIR mode with unit resolution. Data acquisition and processing were carried out using MassLynx software, version 4.1. […]
# (§10) Compound 1.9 was selected to perform in vitro physicochemical studies (solubility and stability). The solubility (S) was evaluated at SGF (pH 1.2), SIF (pH 6.8), and PBS solution (pH 7.4), employing the shake-flask method with UV spectroscopy (Bollini et al., [2013]). […] The stability was evaluated by calculating the percentage of remaining drug (HPLC–MS) after contact with different incubation media (SIF, SGF, PBS, mouse, and bovine plasma) for 120 min. […] Neither compound modification nor degradation was detected after the different incubation periods. […]
# [6] = Mouse plasma stability (HPLC-MS); assay type: in vitro ADME; conditions: mouse/murine plasma, 120 min incubation; read-out: Stability t1/2 Mouse/murine plasma
# Procedure: (§11) Stability assays were performed according to the procedure described in a previous work (Leal et al., [2019]). Samples were taken at different incubation times and analyzed by high-performance liquid chromatography–mass spectrometry (HPLC–MS) using a Waters Alliance e2695 system (Waters Corporation, Milford, MA, USA) fitted with a Phenomenex Kinetex® XB-C18 column (150 × 4.6 mm, 5-μm particle size, Phenomenex Inc., Torrance, CA, USA) coupled to a Waters SQD2 single quadrupole mass spectrometer with an ESI source. A gradient elution was applied using 40% water and 0.1% acetic acid (mobile phase A) and 40% methanol (mobile phase B), with the following program: 0–3 min 40% B; 3–7 min 40–90% B; and 7–20 min 90% B. The flow rate was kept constant at 0.35 ml min^−1. […]
# as §10
# [7] = Bovine plasma stability (HPLC-MS); assay type: in vitro ADME; conditions: 120 min incubation, read-out: Stability t1/2 Bovine plasma
# Procedure: as §11, §10
# [8] = DMSO and water/DMSO (98:2) stability (UV-Vis); assay type: physicochemical; conditions: room temperature
# Procedure: as §3, §4, §5, §6, §7, §8
# as §9, with “For the measurements, solutions were diluted at 1/100 in DMSO and 1/50 in water:DMSO (98:2) mixture. The values in the chart are the mean of three” left out
compound,measurement,setting,value
"OCCN1CCN(c2nc(-c3ccccc3)nc3ccccc23)CC1 [Compound 1.9, 2-[4-(2-Phenylquinazolin-4-yl)piperazin-1-yl]ethanol]",CC50 at 3 days,[1],32 ± 1.9 µM
same,MNCC (maximum non-cytotoxic concentration),[2],12.5 µM and 12.5 ± 2.4 µM
same,EC50,[3]; read-out: EC50,1800 ± 400 nM
same,EC50,"[3]; Bovine viral diarrhea virus isolates and strains, MDBK, 72 h",1700 ± 400 nM
same,SI (CC50/EC50),"[3]; in vitro selectivity index, MDBK cells / BVDV NADL",17.8
same,solubility at 24 h,"[4]; phosphate buffered saline (PBS), aqueous buffer, PBS pH 7.4, 37 °C, read-out: Solubility PBS",300 ± 100 µg/mL
same,solubility at 24 h,"[4]; simulated gastric fluid (SGF), simulated gastric fluid pH 1.2, 37 °C, read-out: Solubility SGF",8700 ± 400 µg/mL
same,solubility at 24 h,"[4]; simulated intestinal fluid (SIF), fassgf or other biorelevant, simulated intestinal fluid pH 6.8, 37 °C, read-out: Solubility SIF",400 ± 200 µg/mL
same,half-life,"[5]; PBS pH 7.4, 120 min incubation, read-out: Stability t1/2 PBS",> 120 min
same,half-life,"[5]; simulated gastric fluid (SGF), SGF pH 1.2, 120 min incubation, read-out: Stability t1/2 SGF",> 120 min
same,half-life,"[5]; simulated intestinal fluid (SIF), SIF pH 6.8, 120 min incubation, read-out: Stability t1/2 SIF",> 120 min
same,half-life,[6],> 120 min
same,half-life,[7],> 120 min
same,time stable in DMSO,[8]; 1.0 mg/mL in DMSO,≥ 5 weeks
same,time stable in water/DMSO (98:2),[8]; 1.0 mg/mL in water/DMSO (98:2),≥ 5 weeks
